Experimental findings from patent publication US4129577A (priority 1977, dated 1978) are described below.

For data set [1], the system named is pigeons. The conditions noted are these: in vivo.
Data set [2] relates to pigeons. The conditions noted are these: in vivo, po.
The test system of a further data set is mice. The conditions noted are these: mouse, in vivo, ip.
The next data set deals with KB cell. In kind it is cell-based, human. The settings on record: for Activity in μg/ml (ED50 = concentration causing 50% inhibition of growth): kb cells.

Take `CC(=O)OCC12CC(OC(=O)CC(C)C)C(C)=CC1OC1C(OC(C)=O)C(OC(C)=O)C2(C)C12CO2` (stereo not shown) [AT-2]: the vomiting entry in the data set on pigeons [1] is reported as “virtually completely eliminated”. In addition, in the data set on pigeons [2], the “toxicity relative to T-2 toxin” value is reported as “less than 1/6”. Further, the “toxicity relative to T-2 toxin” value with mice was “less than 1/2”. Besides, in the data set on KB cell, the “times more active than T-2 toxin” value is reported as “about 5,000 times” and the “Activity in μg/ml (ED50 = concentration causing 50% inhibition of growth)” value is given as 10^-8 μg/ml.

Turning to `CC(=O)OCC12CC(OC(=O)CC(C)C)C(C)=CC1OC1C(OC(=O)c3ccccc3)C(OC(C)=O)C2(C)C12CO2` (stereo not shown) [BzT-2], the “Activity in μg/ml (ED50 = concentration causing 50% inhibition of growth)” value in the data set with KB cell stood at 10 µg/mL.

In the case of `CCC(=O)OC1C2OC3C=C(C)C(OC(=O)CC(C)C)CC3(COC(C)=O)C(C)(C1OC(C)=O)C21CO1` (stereo not shown) [PT-2], in the data set on KB cell, the “Activity in μg/ml (ED50 = concentration causing 50% inhibition of growth)” value is listed as 10^-8 μg/ml.
